Source: patent publication US11638427B2, “Methods and compositions for altering secondary metabolites in plants” (Impello Biosciences, Inc, priority 2020, dated 2023)
Where “and” joins values, the source holds several entries; their conditions need not be identical. Equal values may be shown once.

Tested on: CBDRx Cherry hemp clones
Assay: Foliar spray of MS, MDJ and MS+MDJ on hemp clones: biomass, cannabinoid and terpene analysis
Format: in vivo, Cannabis spp.
Parameters: CBDA / CBD / THCA / Total CBG / Total cannabinoids: unit not given here
Conditions: for plants died before the end of the experiment: four plants per treatment group
Protocol: Methyl salicylate (MS) is an antagonistic compound to the jasmonates. To investigate the effect of MS alone and in conjunction with MDJ, MS (CAS No.: 119-36-8), MDJ, and the combination (MS+MDJ) were applied by foliar spray to CBDRx Cherry hemp clones once per week during both vegetative and flowering phases. Plants were transplanted into 1-gallon pots with Red's soil and put into vegetative light cycle (18L/6D). […] Plants were grown under a total of 12 Boost (Thrive Agritech, NY) 130-watt LED lights set to 18L: 6D photoperiod during the vegetative phase (2 weeks) and this was followed by a 12L: 12D photoperiod during the flowering phase (7 weeks), using the same lighting fixtures. Throughout the nine weeks, all plants were watered when needed with Jack's nutrients.
MS or MDJ treatments were applied at the following concentrations: [1 mM], [4.25 mM], [7.5 mM] and [10 mM]. Each concentration was prepared from a one molar stock solution diluted with RO water and TWEEN®-20 (1M stock) was added. Each plant was sprayed till dripping, which was approximately 50-75 ml. To apply the combination of the two biochemicals, MS and MDJ were sprayed separately but simultaneously, to ensure each compound was applied evenly onto the plant. Each compound was applied using a SPRAYMASTER Chemical Sprayer (King of Prussia, Pa.).
Plants were harvested two months after transplant. After harvesting, plants were air dried at room temperature for two weeks. Once plants were sufficiently dry, above ground dry weights were recorded and dried flower samples were collected and sent to a third-party lab for terpene and cannabinoid analysis. Two plants (#3 and #4) in treatment group MDJ [7.5] mM, two plants (#3 and #4) in MS [4.25] mM, one plant (#4) in MS [7.5], and one plant (#4) in MDJ [10] died before the end of the experiment.

[1] = 1 mM foliar spray, Avg. of group
[2] = 1 mM foliar spray, individual plant
[3] = 4.25 mM foliar spray, Avg. of group
[4] = 4.25 mM foliar spray, individual plant
[5] = 7.5 mM foliar spray, Avg. of group
[6] = 7.5 mM foliar spray, individual plant
[7] = 10 mM foliar spray, Avg. of group
[8] = 10 mM foliar spray, individual plant

**Q.** What does the source list for `CCCCCC1C(=O)CCC1CC(=O)OC` (centres unmarked) [MDJ, methyl dihydrojasmonate]?
**A.** Alpha-bisabolol [1]: 0.109 % wt/wt; Alpha-humulene [1]: 0.08163 % wt/wt; Beta-caryophyllene [1]: 0.2027 % wt/wt; CBCA [1]: 0.64; CBD [1]: 0.105; CBDA [1]: 12.99; CBGA [1]: 0.3425; Limonene [1]: 0.1362 % wt/wt; THCA [1]: 0.565; Total CBD [1]: 11.4975; Total CBG [1]: 4.2075; Total cannabinoids [1]: 14.6425; Total d9THC [1]: 0.495; alpha-pinene [1]: 0.02277 % wt/wt; beta-myrcene [1]: 1.04 % wt/wt; beta-pinene [1]: 0.0188 % wt/wt; total terpenes [1]: 1.7075 % wt/wt; Alpha-bisabolol [2]: 0.1238 % wt/wt and 0.1069 % wt/wt and 0.094 % wt/wt and 0.1113 % wt/wt; Alpha-humulene [2]: 0.0944 % wt/wt and 0.0784 % wt/wt and 0.0831 % wt/wt and 0.0706 % wt/wt; Beta-caryophyllene [2]: 0.2352 % wt/wt and 0.2003 % wt/wt and 0.2076 % wt/wt and 0.1676 % wt/wt; CBCA [2]: 0.57 and 0.71 and 0.64 (2×); CBD [2]: 0.16 and 0 and 0.12 and 0.14; CBDA [2]: 11.86 and 14.25 and 13.12 and 12.73; CBGA [2]: 0.28 and 0.44 and 0.34 and 0.31; Limonene [2]: 0.1352 % wt/wt and 0.1309 % wt/wt and 0.1572 % wt/wt and 0.1215 % wt/wt; THCA [2]: 0.52 and 0.63 and 0.57 and 0.54; Total CBD [2]: 10.55 and 12.5 and 11.63 and 11.31; Total CBG [2]: 0.24 and 16.03 and 0.29 and 0.27; Total cannabinoids [2]: 13.39 and 16.03 and 14.79 and 14.36; Total d9THC [2]: 0.45 and 0.55 and 0.5 and 0.48; alpha-pinene [2]: 0.0293 % wt/wt and 0.0283 % wt/wt and 0.0335 % wt/wt and 0 % wt/wt; beta-myrcene [2]: 0.9825 % wt/wt and 1.0146 % wt/wt and 1.2146 % wt/wt and 0.9497 % wt/wt; beta-pinene [2]: 0.0269 % wt/wt and 0.0238 % wt/wt and 0.0245 % wt/wt and 0 % wt/wt; total terpenes [2]: 1.73 % wt/wt and 1.67 % wt/wt and 1.92 % wt/wt and 1.51 % wt/wt; Alpha-bisabolol [3]: 0.1242 % wt/wt; Alpha-humulene [3]: 0.0859 % wt/wt; Beta-caryophyllene [3]: 0.2106 % wt/wt; CBCA [3]: 0.6275; CBD [3]: 0.29; CBDA [3]: 12.9825; CBGA [3]: 0.2975; Limonene [3]: 0.1168 % wt/wt; THCA [3]: 0.565; Total CBD [3]: 11.6725; Total CBG [3]: 0.2625; Total cannabinoids [3]: 14.7625; Total d9THC [3]: 0.495; alpha-pinene [3]: 0.0132 % wt/wt; beta-myrcene [3]: 0.9189 % wt/wt; beta-pinene [3]: 0.02055 % wt/wt; total terpenes [3]: 1.5875 % wt/wt; Alpha-bisabolol [4]: 0.1239 % wt/wt and 0.1229 % wt/wt and 0.1255 % wt/wt and 0.1245 % wt/wt; Alpha-humulene [4]: 0.0851 % wt/wt and 0.0781 % wt/wt and 0.0861 % wt/wt and 0.0943 % wt/wt; Beta-caryophyllene [4]: 0.2071 % wt/wt and 0.1897 % wt/wt and 0.208 % wt/wt and 0.2377 % wt/wt; CBCA [4]: 0.63 (2×) and 0.65 and 0.6; CBD [4]: 0.28 and 0.36 and 0.38 and 0.14; CBDA [4]: 13.17 (2×) and 12.87 and 12.72; CBGA [4]: 0.33 and 0.31 and 0.26 and 0.29; Limonene [4]: 0.1049 % wt/wt and 0.1307 % wt/wt and 0.0983 % wt/wt and 0.1334 % wt/wt; THCA [4]: 0.57 (2×) and 0.56 (2×); Total CBD [4]: 11.83 and 11.9 and 11.67 and 11.29; Total CBG [4]: 0.29 and 0.27 and 0.23 and 0.26; Total cannabinoids [4]: 14.98 and 15.06 and 14.7 and 14.31; Total d9THC [4]: 0.5 (2×) and 0.49 (2×); alpha-pinene [4]: 0 % wt/wt (2×) and 0.0253 % wt/wt and 0.0275 % wt/wt; beta-myrcene [4]: 0.8032 % wt/wt and 1.0724 % wt/wt and 0.7447 % wt/wt and 1.0552 % wt/wt; beta-pinene [4]: 0.0189 % wt/wt and 0.021 % wt/wt and 0.019 % wt/wt and 0.0233 % wt/wt; total terpenes [4]: 1.44 % wt/wt and 1.73 % wt/wt and 1.38 % wt/wt and 1.8 % wt/wt; Alpha-bisabolol [5]: 0.112 % wt/wt; Alpha-humulene [5]: 0.08165 % wt/wt; Beta-caryophyllene [5]: 0.2043 % wt/wt; CBCA [5]: 0.675; CBD [5]: 0.125; CBDA [5]: 13.16; CBGA [5]: 0.365; Limonene [5]: 0.09595 % wt/wt; THCA [5]: 0.575; Total CBD [5]: 11.665; Total CBG [5]: 0.315; Total cannabinoids [5]: 14.9; Total d9THC [5]: 0.505; alpha-pinene [5]: 0 % wt/wt; beta-myrcene [5]: 0.7442 % wt/wt; beta-pinene [5]: 0.01015 % wt/wt; total terpenes [5]: 1.345 % wt/wt; plants died before the end of the experiment (7.5 mM foliar spray): Two plants; Alpha-bisabolol [6]: 0.1165 % wt/wt and 0.1076 % wt/wt; Alpha-humulene [6]: 0.0802 % wt/wt and 0.0831 % wt/wt; Beta-caryophyllene [6]: 0.2 % wt/wt and 0.2086 % wt/wt; CBCA [6]: 0.63 and 0.72; CBD [6]: 0.14 and 0.11; CBDA [6]: 12.43 and 13.89; CBGA [6]: 0.36 and 0.37; Limonene [6]: 0.0965 % wt/wt and 0.0954 % wt/wt; THCA [6]: 0.53 and 0.62; Total CBD [6]: 11.04 and 12.29; Total CBG [6]: 0.31 and 0.32; Total cannabinoids [6]: 14.09 and 15.71; Total d9THC [6]: 0.47 and 0.54; alpha-pinene [6]: 0 % wt/wt; beta-myrcene [6]: 0.7818 % wt/wt and 0.7066 % wt/wt; beta-pinene [6]: 0.0203 % wt/wt and 0 % wt/wt; total terpenes [6]: 1.39 % wt/wt and 1.3 % wt/wt; Alpha-bisabolol [7]: 1.477 % wt/wt; Alpha-humulene [7]: 0.1323 % wt/wt; Beta-caryophyllene [7]: 0.0874 % wt/wt; CBCA [7]: 0.643; CBD [7]: 0.24; CBDA [7]: 12.936; CBGA [7]: 0.33; Limonene [7]: 0.2188 % wt/wt; THCA [7]: 0.56; Total CBD [7]: 11.58; Total CBG [7]: 0.29; Total cannabinoids [7]: 14.71; Total d9THC [7]: 0.493; alpha-pinene [7]: 0.023 % wt/wt; beta-myrcene [7]: 0.1067 % wt/wt; beta-pinene [7]: 0.8058 % wt/wt; total terpenes [7]: 0.023 % wt/wt; plants died before the end of the experiment (10 mM foliar spray): one plant; Alpha-bisabolol [8]: 0.1507 % wt/wt and 0.143 % wt/wt and 0.1033 % wt/wt; Alpha-humulene [8]: 0.0955 % wt/wt and 0.0751 % wt/wt and 0.0916 % wt/wt; Beta-caryophyllene [8]: 0.2372 % wt/wt and 0.1978 % wt/wt and 0.2214 % wt/wt; CBCA [8]: 0.62 and 0.71 and 0.6; CBD [8]: 0.18 and 0.34 and 0.2; CBDA [8]: 12.76 and 14.33 and 11.72; CBGA [8]: 0.26 and 0.41 and 0.32; Limonene [8]: 0.1165 % wt/wt and 0.0884 % wt/wt and 0.1154 % wt/wt; THCA [8]: 0.56 and 0.62 and 0.5; Total CBD [8]: 11.36 and 12.9 and 10.48; Total CBG [8]: 0.23 and 0.36 and 0.28; Total cannabinoids [8]: 14.38 and 16.41 and 13.34; Total d9THC [8]: 0.49 and 0.55 and 0.44; alpha-pinene [8]: 0 % wt/wt; beta-myrcene [8]: 0.8838 % wt/wt and 0.6844 % wt/wt and 0.8492 % wt/wt; beta-pinene [8]: 0.0249 % wt/wt and 0.0217 % wt/wt and 0.0224 % wt/wt; total terpenes [8]: 1.62 % wt/wt and 1.3 % wt/wt and 1.51 % wt/wt; plant growth effects on clonal hemp plants in the vegetative stage (all concentrations (1-10 mM), compared to all tested concentrations of MS): beneficial plant growth effects; total terpene content (application of 1 mM or 4.25 mM): increased
